One compound from patent publication US12268697B2, “Oxysterols and methods of use thereof” (Sage Therapeutics, Inc., priority 2015, dated 2025) can be followed below.

The target of this experiment is T1, GlunN1/GluN2A glutamate receptors (Homo sapiens, UniProt Q05586+Q12879).
T1 construct: expressed in transfected cells
The experiment can be described thus: Whole-cell patch clamp of mammalian cells (Ionworks Barracuda, IWB), NMDA potentiation. The class given is cell-based. To be noted: 3 μM test article; HEK293 cells expressing human GRIN1/GRIN2A; co-application with EC20 L-glutamate and 30 μM glycine. Here is the method:
NMDA potentiation was assessed using either whole cell patch clamp of mammalian cells which expressed NMDA receptors.
Whole-Cell Patch Clamp of Mammalian Cells (Ionworks Barracuda (IWB)
The whole-cell patch-clamp technique was used to investigate the effects of compounds on GlunN1/GluN2A glutamate receptors expressed in mammalian cells.
HEK293 cells were transformed with adenovirus 5 DNA and transfected with cDNA encoding the human GRIN1/GRIN2A genes. Stable transfectants were selected using G418 and Zeocin-resistance genes incorporated into the expression plasmid and selection pressure maintained with G418 and Zeocin in the medium. Cells were cultured in Dulbecco's Modified Eagle Medium/Nutrient Mixture (D-MEM/F-12) supplemented with 10% fetal bovine serum, 100 μg/ml penicillin G sodium, 100 μg/ml streptomycin sulphate, 100 μg/ml Zeocin, 5 μg/ml blasticidin and 500 μg/ml G418.
Test article effects were evaluated in 8-point concentration-response format (4 replicate wells/concentration). […]
• a) Intracellular solution (mM): 50 mM CsCl, 90 mM CsF, 2 mM MgCl2, 5 mM EGTA, 10 mM HEPES. […] Cell suspension will be pipetted into the wells (9 μL per well) of the PPC planar electrode. • b) Whole-cell recording configuration will be established via patch perforation with membrane currents recorded by on-board patch clamp amplifiers. • c) Two recordings (scans) will be performed. […]
In general terms: Patch clamp records ionic current or voltage across a cell membrane.

T1 sequence (Q12879 23-1464, other chains not shown): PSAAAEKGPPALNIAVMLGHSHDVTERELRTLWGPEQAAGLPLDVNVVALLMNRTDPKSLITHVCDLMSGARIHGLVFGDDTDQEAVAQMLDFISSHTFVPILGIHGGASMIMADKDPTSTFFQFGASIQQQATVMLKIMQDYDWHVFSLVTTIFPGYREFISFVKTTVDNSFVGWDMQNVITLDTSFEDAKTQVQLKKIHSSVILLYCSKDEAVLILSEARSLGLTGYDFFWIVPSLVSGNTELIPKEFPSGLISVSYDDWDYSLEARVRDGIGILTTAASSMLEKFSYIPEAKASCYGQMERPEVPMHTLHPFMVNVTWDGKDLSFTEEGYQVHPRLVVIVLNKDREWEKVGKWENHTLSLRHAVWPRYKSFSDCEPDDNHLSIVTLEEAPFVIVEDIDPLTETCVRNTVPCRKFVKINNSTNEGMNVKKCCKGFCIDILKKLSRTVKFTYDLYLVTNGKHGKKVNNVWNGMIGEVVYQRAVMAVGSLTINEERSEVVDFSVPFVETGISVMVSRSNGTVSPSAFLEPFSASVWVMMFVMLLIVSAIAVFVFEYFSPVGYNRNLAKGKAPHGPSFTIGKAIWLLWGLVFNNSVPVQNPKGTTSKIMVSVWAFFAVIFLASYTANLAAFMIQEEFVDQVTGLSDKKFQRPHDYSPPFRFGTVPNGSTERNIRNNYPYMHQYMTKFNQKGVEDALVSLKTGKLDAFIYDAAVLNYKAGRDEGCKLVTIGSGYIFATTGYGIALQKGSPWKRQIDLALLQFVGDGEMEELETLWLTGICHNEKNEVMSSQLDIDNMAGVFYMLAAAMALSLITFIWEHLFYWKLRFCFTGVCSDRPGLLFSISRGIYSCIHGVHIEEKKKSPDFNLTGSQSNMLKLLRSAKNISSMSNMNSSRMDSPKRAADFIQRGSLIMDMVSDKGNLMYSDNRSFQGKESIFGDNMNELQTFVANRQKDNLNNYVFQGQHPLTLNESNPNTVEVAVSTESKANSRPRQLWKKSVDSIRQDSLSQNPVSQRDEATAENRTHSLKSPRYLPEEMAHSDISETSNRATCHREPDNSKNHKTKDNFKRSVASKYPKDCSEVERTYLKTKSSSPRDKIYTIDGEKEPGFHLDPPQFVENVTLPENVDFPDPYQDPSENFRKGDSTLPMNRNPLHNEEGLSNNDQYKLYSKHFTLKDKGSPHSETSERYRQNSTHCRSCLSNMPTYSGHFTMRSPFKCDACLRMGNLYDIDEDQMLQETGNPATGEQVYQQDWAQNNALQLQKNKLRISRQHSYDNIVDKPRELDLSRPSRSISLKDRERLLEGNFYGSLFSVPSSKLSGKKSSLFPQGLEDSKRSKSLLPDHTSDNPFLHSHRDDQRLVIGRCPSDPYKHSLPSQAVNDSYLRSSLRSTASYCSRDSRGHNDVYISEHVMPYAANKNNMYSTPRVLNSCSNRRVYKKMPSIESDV

Take `C[C@H](CCC[C@@H](C)O)[C@H]1CC[C@H]2[C@@H]3CC[C@H]4C[C@@](C)(O)CC[C@]4(C)[C@H]3CC[C@]12C` [Compound 24]: the “GluN2A PCA IWB Ephys % potentiation at 3 μM” value was “B (“B” indicates potentiation of >100%)”.
